# From the supplement of paper PMC10307832
# Key:
# Assay in all cases: relative viability (nuclei count vs DMSO), 5 days (fraction); higher = more cells survive
# [1] = compound: C1COCCN1C2=NC(=NC3=C2OC4=C3C=CC=N4)C5=CC(=CC=C5)NC(=O)C6=CN=C(C=C6)N + Nc1nc2[nH]cc(CCc3ccc(C(=O)N[C@@H](CCC(=O)O)C(=O)O)cc3)c2c(=O)[nH]1 [Pemetrexed] (partner 0.2 µM)
# Procedure, shortened: (§1)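 Five library-drug doses in √10 steps were combined with a fixed anchor-drug dose, or a single drug was given alone, by pin tool to lung cancer cell lines in 1536-well plates the day after seeding. Nuclei were stained and counted after 5 days. Relative viability is the nuclei count in treated wells over that in vehicle wells, taken as the median of duplicate plates.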
# [2] = compound: C1COCCN1C2=NC(=NC3=C2OC4=C3C=CC=N4)C5=CC(=CC=C5)NC(=O)C6=CN=C(C=C6)N + CC(=O)Nc1cccc(-n2c(=O)n(C3CC3)c(=O)c3c(Nc4ccc(I)cc4F)n(C)c(=O)c(C)c32)c1 [Trametinib] (partner 0.02 µM)
# Procedure, shortened: as §1
# [3] = compound: CN1CCC(CNc2ccc3ncc(-c4cccc(OC(F)(F)F)c4)n3n2)CC1 [SGI-1776] + CCNC(=O)c1noc(-c2cc(C(C)C)c(O)cc2O)c1-c1ccc(CN2CCOCC2)cc1 [Luminespib] (partner 0.01 µM)
# Procedure, shortened: as §1
# [4] = compound: CN1CCC(CNc2ccc3ncc(-c4cccc(OC(F)(F)F)c4)n3n2)CC1 [SGI-1776] + NC(=O)Nc1cc(-c2cccc(F)c2)sc1C(=O)N[C@H]1CCCNC1 [AZD7762] (partner 0.2 µM)
# Procedure, shortened: as §1
Cell Line,relative viability ([1]; first compound 0.02 µM),relative viability ([1]; first compound 0.06325 µM),relative viability ([1]; first compound 0.2 µM),relative viability ([1]; first compound 0.6325 µM),relative viability ([1]; first compound 2 µM),relative viability ([2]; first compound 0.02 µM),relative viability ([2]; first compound 0.06325 µM),relative viability ([2]; first compound 0.2 µM),relative viability ([2]; first compound 0.6325 µM),relative viability ([2]; first compound 2 µM),relative viability ([3]; first compound 0.08 µM),relative viability ([3]; first compound 0.8 µM),relative viability ([3]; first compound 2.53 µM),relative viability ([3]; first compound 8 µM),relative viability ([4]; first compound 0.08 µM),relative viability ([4]; first compound 0.8 µM),relative viability ([4]; first compound 2.53 µM),relative viability ([4]; first compound 8 µM)
SK-LU-1,1.07,0.953,1.06,0.917,0.465,0.486,0.502,0.5,0.42,0.411,0.217,0.192,0.19,0.167,,,,
LCLC-97TM1,0.199,0.195,0.181,0.203,0.2,0.187,0.205,0.204,0.169,0.134,0.947,0.847,0.746,0.742,0.302,0.313,0.204,0.304
HCC-15,0.225,0.228,0.217,0.218,0.242,0.413,0.423,0.343,0.325,0.278,0.353,0.34,0.325,0.186,1.05,1.12,1.34,1.21
H3255,0.507,0.558,0.528,0.524,0.491,0.703,0.588,0.604,0.663,0.421,0.988,1.1,0.894,0.665,1.05,0.899,0.939,0.728
NCI-H1915,0.51,0.515,0.471,0.476,0.369,0.3,0.313,0.298,0.218,0.281,0.778,0.843,0.75,0.684,0.756,0.663,0.705,0.791
NCI-H1650,0.391,0.384,0.377,0.376,0.3,0.535,0.497,0.575,0.526,0.39,0.211,0.198,0.195,0.172,,,,
NCI-H647,0.175,0.155,0.141,0.138,0.114,0.414,0.483,0.419,0.378,0.234,0.263,0.198,0.192,0.144,0.479,0.49,0.414,0.319
NCI-H2126,0.706,0.784,0.674,0.629,0.559,0.592,0.569,0.618,0.547,0.45,0.933,0.972,0.947,0.774,1,0.98,1.02,0.959
NCI-H727,,,,,,0.378,0.332,0.374,0.416,0.364,0.408,0.337,0.311,0.253,0.696,0.739,0.807,0.583
NCI-H522,0.915,0.966,0.941,0.972,0.963,0.797,0.901,0.681,0.758,0.592,1.16,1.1,1.09,0.972,0.819,0.747,0.789,0.613
EMC-BAC-2,0.458,0.462,0.465,0.462,0.444,0.838,0.924,0.853,0.789,0.725,1.2,1.27,1.26,1.11,1.12,1.16,1.09,0.928
NCI-H1437,0.339,0.311,0.308,0.366,0.254,0.492,0.551,0.511,0.419,0.224,1.12,1.19,1.22,1.12,1.11,1.13,1.07,1.02
COR-L23,0.202,0.204,0.194,0.162,0.167,0.609,0.669,0.663,0.593,0.469,0.702,0.68,0.743,0.511,,,,
NCI-H2009,1.07,1.05,1.07,1.01,0.849,0.264,0.273,0.221,0.245,0.256,1.04,1.03,0.977,0.955,,,,
HCC-78,0.913,0.944,0.926,0.929,0.64,0.926,0.836,0.899,0.756,0.566,,,,,0.665,0.726,0.579,0.538
NCI-H661,0.923,0.918,0.889,0.921,0.602,0.607,0.631,0.534,0.599,0.436,0.996,0.977,1,0.913,,,,
SK-MES-1,0.984,0.958,0.827,0.86,0.646,0.474,0.518,0.458,0.426,0.395,0.856,0.849,0.395,0.386,,,,
NCI-H1648,0.743,0.893,0.819,0.754,0.554,0.54,0.534,0.456,0.405,0.482,,,,,0.668,0.753,0.771,0.658
NCI-H1703,,,,,,,,,,,,,,,0.106,0.114,0.136,0.106
NCI-H2023,0.278,0.222,0.196,0.166,0.134,0.509,0.717,0.564,0.416,0.246,0.746,0.77,0.693,0.363,,,,
NCI-H1563,0.795,0.699,0.767,0.694,0.685,,,,,,0.522,0.497,0.515,0.538,,,,
ABC-1,,,,,,,,,,,0.308,0.577,0.52,0.51,0.801,0.648,0.85,0.83
